Assay results: patent publication US8735388B2, “Heterocyclic compounds with affinity to muscarinic receptors” (Abbvie B. V. A., priority 2007, dated 2014)
Like-named read-outs stand apart in the source and are kept apart here.

Tests used:
[1] = molecular target: T1, Muscarine M4 (GPCR-A-MA-ACH M4) (Homo sapiens, UniProt P08173); assay: Muscarine M4 cell-based functional assay (CHO cells, Ca2+ - Aequorin luminescence)
T1 construct: expressed in transfected cells; host or cells: CHO cells
T1 sequence (P08173 1-479): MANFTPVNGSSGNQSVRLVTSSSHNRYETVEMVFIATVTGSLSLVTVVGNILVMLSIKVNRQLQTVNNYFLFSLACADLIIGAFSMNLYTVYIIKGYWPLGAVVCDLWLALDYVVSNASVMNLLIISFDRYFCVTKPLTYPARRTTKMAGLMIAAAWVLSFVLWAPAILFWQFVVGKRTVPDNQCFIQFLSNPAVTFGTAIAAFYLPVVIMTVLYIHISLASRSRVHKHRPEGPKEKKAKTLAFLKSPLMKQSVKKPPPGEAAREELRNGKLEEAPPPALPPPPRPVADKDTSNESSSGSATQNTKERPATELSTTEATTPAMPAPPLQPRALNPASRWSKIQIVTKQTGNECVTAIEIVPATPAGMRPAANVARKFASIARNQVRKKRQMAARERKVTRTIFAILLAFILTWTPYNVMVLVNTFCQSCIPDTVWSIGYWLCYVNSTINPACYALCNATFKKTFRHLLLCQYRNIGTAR
Procedure: Compounds were dissolved in DMSO (10 mM) and diluted in assay buffer to test concentration. Prime testing was at 1 μM; for actives in antagonist mode (PI, percent inhibition with respect to reference agonist and blank>30%) as well as actives in agonist mode (PS, percent stimulation with respect to reference agonist and blank>30%) testing was continued at lower concentrations in 10-fold dilutions: 0.1 μM, 0.01 μM, etc.
Cells were incubated with compound and the response indicated was measured.
The results are expressed as a percent of reference agonist values and blanks in the presence of the test compound, percent stimulation for agonist mode; for the antagonist mode (test compound in the presence of reference agonist) as percent inhibition. The EC50 values (concentration causing a half-maximal stimulation of control values), IC50 values (concentration causing a half-maximal inhibition of control values) were determined by non-linear regression analysis of the concentration-response curves using Hill equation curve fitting.

[2] = molecular target: T1, Muscarine M4 (GPCR-A-MA-ACH M4); assay: Muscarine M4 receptor binding, 3H-Oxotremorine
Procedure: (§1) Compounds were dissolved in DMSO (10 mM) and diluted in assay buffer to test concentration. Prime testing was at 10 μM; for actives (PI, percent inhibition with respect to total and non-specific binding >40%) testing was continued at lower concentrations in 10-fold dilutions: 1 μM, 0.1 μM, etc.
(§2) Following incubation of compound with the receptor preparation (from ‘Tissue’) and the Ligand at the time and temperature indicated, the receptor preparations were rapidly filtered under vacuum through glass fibre filters; the filters were washed extensively with an ice-cold buffer using a harvester. Bound radioactivity was measured by scintillation counting using a liquid scintillation cocktail.
(§3) Results were expressed as percentage of total Ligand binding and that of Non Specific Binding, per concentration of Compound tested (duplicates); from the concentration—displacement curves IC50 values were determined by non-linear regression analysis using Hill equation curve fitting. The inhibition constants (Ki) were calculated from the Cheng-Prushoff equation Ki=IC50/(1+L/Kd), where L is the concentration of radioligand in the assay, and Kd the affinity of the radioligand for the receptor. Results were expressed as pKi's, means±SD of at least 2 separate experiments; i.e. outliers (outside+/−1 std of mean) and discrepancies were excluded.

[3] = molecular target: T2, Muscarine M1 (GPCR-A-MA-ACH M1) (Homo sapiens, UniProt P11229); assay: Muscarine M1 cell-based functional assay (CHO cells, Ca2+ - FLIPR Fluorimetry); conditions: read-out: Cell funct. Musc. M1 Agonism pEC50 (converted)
T2 construct: expressed in transfected cells; host or cells: CHO cells
T2 sequence (P11229 1-460): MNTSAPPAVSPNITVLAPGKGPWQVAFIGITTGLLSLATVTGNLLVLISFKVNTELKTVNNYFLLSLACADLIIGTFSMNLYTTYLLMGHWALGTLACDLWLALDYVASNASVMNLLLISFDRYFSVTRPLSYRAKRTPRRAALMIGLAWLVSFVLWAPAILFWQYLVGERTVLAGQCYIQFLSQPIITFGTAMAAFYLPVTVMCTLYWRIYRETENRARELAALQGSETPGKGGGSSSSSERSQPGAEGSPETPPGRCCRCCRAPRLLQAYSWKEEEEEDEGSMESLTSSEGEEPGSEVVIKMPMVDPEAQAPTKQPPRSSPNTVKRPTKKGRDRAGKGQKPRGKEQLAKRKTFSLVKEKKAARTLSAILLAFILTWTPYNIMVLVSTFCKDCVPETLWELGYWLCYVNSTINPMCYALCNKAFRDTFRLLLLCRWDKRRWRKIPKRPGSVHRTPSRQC

[4] = molecular target: T2, Muscarine M1 (GPCR-A-MA-ACH M1); assay: Muscarine M1 receptor binding, 3H-Pirenzepine; conditions: human M1, CHO cells, ligand 2 nM, 60 min/22° C., read-out: RB Musc. M1 3H-Pirenzepine pKi (converted)
Procedure: as §1, §2, §3

[5] = molecular target: T1, Muscarine M4 (GPCR-A-MA-ACH M4); assay: Muscarine M4 receptor binding, 3H-4DAMP; conditions: human M4, CHO cells, ligand 0.2 nM, 60 min/22° C., read-out: RB Musc. M4 3H-DAMP pKi (converted)
Procedure: as §1, §2, §3

[6] = molecular target: T3, Muscarine M2 (GPCR-A-MA-ACH M2) (Cavia porcellus, UniProt H0VRN8); assay: Muscarine M2 functional assay, isolated organ (left atrium, electrically paced), agonist and antagonist mode; parameters: species or system Guinea Pig
T3 construct: from tissue; host or cells: guinea pig left atrium (electrically paced)
T3 sequence (H0VRN8 1-466): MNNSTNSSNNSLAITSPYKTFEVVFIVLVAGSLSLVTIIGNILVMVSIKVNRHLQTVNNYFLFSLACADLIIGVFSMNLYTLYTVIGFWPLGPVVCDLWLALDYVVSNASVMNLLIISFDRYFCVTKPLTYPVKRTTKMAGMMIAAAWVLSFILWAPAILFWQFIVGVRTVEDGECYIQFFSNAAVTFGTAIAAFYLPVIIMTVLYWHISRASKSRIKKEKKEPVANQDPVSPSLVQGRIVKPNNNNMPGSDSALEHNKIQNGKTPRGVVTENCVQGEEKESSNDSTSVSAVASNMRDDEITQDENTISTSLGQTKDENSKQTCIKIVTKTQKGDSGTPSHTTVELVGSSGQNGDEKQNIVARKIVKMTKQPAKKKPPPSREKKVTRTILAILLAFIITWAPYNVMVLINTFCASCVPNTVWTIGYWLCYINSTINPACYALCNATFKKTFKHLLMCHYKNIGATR

[7] = molecular target: T4, Muscarine M3 (GPCR-A-MA-ACH M3) (Cavia porcellus, UniProt H0W1Z3); assay: Muscarine M3 functional assay, isolated organ (ileum), agonist and antagonist mode; parameters: species or system Guinea Pig
T4 construct: from tissue; host or cells: guinea pig ileum

[8] = human M4, CHO cells, agonist mode, reference agonist oxotremorine, read-out: Cell funct. Musc. M4 Agonism pEC50 (converted)
[9] = human M4, CHO cells, receptor binding, ligand 6 nM, 30 min/25° C., read-out: RB Musc. M4 3H-Oxotremorine pKi (converted)
[10] = human M1, CHO cells, agonist mode, reference agonist acetylcholine

T4 sequence (H0W1Z3 1-590): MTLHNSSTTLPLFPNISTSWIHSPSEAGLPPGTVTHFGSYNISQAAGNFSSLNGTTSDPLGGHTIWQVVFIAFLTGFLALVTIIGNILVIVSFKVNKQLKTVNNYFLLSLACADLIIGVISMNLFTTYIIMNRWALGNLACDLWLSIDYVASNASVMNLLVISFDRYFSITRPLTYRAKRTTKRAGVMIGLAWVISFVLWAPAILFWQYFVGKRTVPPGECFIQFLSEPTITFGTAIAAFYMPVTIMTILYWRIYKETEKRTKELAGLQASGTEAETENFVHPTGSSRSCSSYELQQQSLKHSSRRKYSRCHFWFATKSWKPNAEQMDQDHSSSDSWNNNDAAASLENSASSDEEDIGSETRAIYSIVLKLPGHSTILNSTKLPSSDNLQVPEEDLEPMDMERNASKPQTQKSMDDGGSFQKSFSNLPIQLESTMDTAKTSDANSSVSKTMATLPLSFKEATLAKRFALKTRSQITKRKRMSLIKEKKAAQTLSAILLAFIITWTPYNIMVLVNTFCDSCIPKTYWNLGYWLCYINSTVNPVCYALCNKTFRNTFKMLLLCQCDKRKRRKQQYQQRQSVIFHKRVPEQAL

| Compound | EC50 [1, 8] [nM] | Ki [2, 9] [nM] | EC50 [3, 10] [nM] | Ki [4] [nM] | Ki [5] [nM] | Kb [7] [nM] | EC50 [1] [nM] | Ki [2] [nM] | EC50 [3] [nM] | Kb [6] [nM] |
| --- | --- | --- | --- | --- | --- | --- | --- | --- | --- | --- |
| CCCCC#Cc1c[nH]nc1C1=CCCN(C)C1 [Compound 45A, 3-(4-Hex-1-ynyl-1H-Pyrazol-3-yl)-1,2,5,6-tetrahydro-1-methylpyridine] | 794 | 398 | 126 | 1580 | 631 |  |  |  |  |  |
| CCCCCC#Cc1c[nH]nc1C1=CCCN(C)C1 [Compound 45B, 3-(4-Hept-1-ynyl-1H-pyrazol-3-yl)-1,2,5,6-tetrahydro-1-methylpyridine] | 316 | 501 | 126 | 2000 | 1260 |  |  |  |  |  |
| CCCCCCCC#Cc1c[nH]nc1C1=CCCN(C)C1 [Compound 45C, 3-(4-Non-1-ynyl-1H-pyrazol-3-yl)-1,2,5,6-tetrahydro-1-methylpyridine] | 2000 | 501 | > 1000 | 794 | 794 |  |  |  |  |  |
| CN1CCC=C(c2n[nH]cc2C#CCCCc2ccccc2)C1 [Compound 45D, 3-[4-(5-Phenyl-pent-1-ynyl)-1H-pyrazol-3-yl]-1,2,5,6-tetrahydro-1-methylpyridine] | 1260 | 501 | 794 | 2000 | 631 |  |  |  |  |  |
| CN1CCC=C(c2n[nH]cc2C#CCCCC2CCCCC2)C1 [Compound 45E, 3-[4-(5-Cyclohexyl-pent-1-ynyl)-1H-pyrazol-3-yl]-1,2,5,6-tetrahydro-1-methylpyridine] | > 10000 | 1580 | > 1000 | 1580 | 1580 |  |  |  |  |  |
| CCCCC=Cc1c[nH]nc1C1=CCCN(C)C1 [Compound 47A, 3-(4-Hex-1-enyl-1H-pyrazol-3-yl)-1,2,5,6-tetrahydro-1-methylpyridine] | 501 | 251 | 158 | 2510 | 794 |  |  |  |  |  |
| CCCCCCC=Cc1c[nH]nc1C1=CCCN(C)C1 [Compound 47C, 3-(4-Oct-1-enyl-1H-pyrazol-3-yl)-1,2,5,6-tetrahydro-1-methylpyridine] | 631 | 251 | 794 | 794 | 794 |  |  |  |  |  |
| CCSc1c[nH]nc1C1CN2CCC1CC2 (stereo not shown) [Compound 49D, 3-(4-Ethylsulfanyl-1H-pyrazol-3-yl)-1-azabicyclo[2.2.2]octane] |  |  |  | 794 | 100 |  | 158 | 126 | 39.8 |  |
| FC(F)=CCCSc1c[nH]nc1C1CN2CCC1CC2 (stereo not shown) [Compound 49I, 3-[4-(4,4-Difluoro-but-3-enylsulfanyl)-1H-pyrazol-3-yl]-1-azabicyclo[2.2.2]octane] |  |  |  | 316 | 63.1 |  | 20 | 12.6 | 3.16 |  |
| Ic1c[nH]nc1[C@@H]1CN2CCC[C@H]1C2 [Compound 59, endo-6-(4-iodo-1H-pyrazol-3-yl)-1-azabicyclo[3.2.1]octane] |  |  |  | 1000 | 100 |  | > 10000 | 200 | 79.4 |  |
| COc1ccccc1CNCCCCCCNCCCCCCCCNCCCCCCNCc1ccccc1OC [Methoctramine, reference compound] |  |  |  |  |  |  |  |  |  | 12.6 |
| CN1CCN(CC(=O)N2c3ccccc3C(=O)Nc3cccnc32)CC1 [Pirenzepine, reference compound] |  |  |  |  |  | 1.26 |  |  |  |  |

Second part, led by results:

| EC50 [1, 8] [nM] | Ki [2, 9] [nM] | EC50 [3, 10] [nM] | Ki [4] [nM] | Ki [5] [nM] | Kb [7] [nM] | Compound | EC50 [1] [nM] | Ki [2] [nM] | EC50 [3] [nM] | Kb [6] [nM] |
| --- | --- | --- | --- | --- | --- | --- | --- | --- | --- | --- |
| 794 | 631 | 200 | 1580 | 251 |  | CCCCC=Cc1conc1C1=CCCN(C)C1 [Compound 68A, 3-(4-Hex-1-enyl-isoxazol-3-yl)-1,2,5,6-tetrahydro-1-methylpyridine] |  |  |  |  |
| 794 | 794 | 794 | 5010 | 1000 |  | CCCCCCC=Cc1conc1C1=CCCN(C)C1 [Compound 68B, 3-(4-Oct-1-enyl-isoxazol-3-yl)-1,2,5,6-tetrahydro-1-methylpyridine] |  |  |  |  |
| 631 | 251 | 251 | 1000 | 200 |  | CCCCCC#Cc1conc1C1=CCCN(C)C1 [Compound 70A, 3-(4-Hept-1-ynyl-isoxazol-3-yl)-1,2,5,6-tetrahydro-1-methylpyridine] |  |  |  |  |
